According to patent publication US4914125A, “(S)-emopamil for the treatment of migraine” (priority 1988, dated 1990):

Columns and labels:
[1] = test system: increase in blood pressure induced by serotonin; assay: inhibition of the increase in blood pressure induced by serotonin in the pithed rat on intravenous administration; assay type: in vivo, rat (male Sprague-Dawley); details: for ED50: iv, serotonin 0.0215 mg/kg i.v., read-out: ED 50% (dose which inhibits the increase in blood pressure due to serotonin by 50%)
Protocol: The pithing is carried out by a rod through the orbit. […] The criterion of an action of a substance is the relative inhibition (δ-%) of the increase in blood pressure induced by serotonin (δmm Hg). The quantitative evaluation is by analysis of the linear regression (y =a+b x) between log dose (mg/kg) and relative inhibition (δ%) of the increase in blood pressure due to serotonin.

serotonin [2] = details: by comparison with known serotonin antagonists; cited from earlier work
blood/brain barrier [3] = details: rat, in vivo
From the text: (§1) The calculated BUI values indicate the cerebral uptake as a percentage of the water uptake.

blood/brain barrier [4] = assay: brain uptake index (BUI) after injection into the common carotid artery of the anesthetized rat, single passage through the cerebral capillaries; details: [14C]-labeled test substance, [3H]-labeled water as internal standard, HEPES-buffered Ringer solution pH=7.35, anesthetized rat
From the text: as §1

serotonin [5] = assay: serotonin-antagonistic action on oral administration; assay type: in vivo; details: (S)-emopamil vs verapamil

Compound	ED50 ([1]; pithed rat, i.v.) [mg/kg]	serotonin-antagonistic action (in words) (serotonin [2])	antiserotonin action (in words) ([1]; compared with known serotonin antagonists and verapamil)	serotonin-antagonistic action relative to verapamil (times) ([1]; pithed rat, i.v., (S)-emopamil vs verapamil)	passage of the blood/brain barrier (in words) (blood/brain barrier [3])	BUI value (cerebral uptake as a percentage of the water uptake) (blood/brain barrier [4]) [%]	superiority to verapamil in the serotonin-antagonistic action (factor) (serotonin [5])
COc1ccc(CCN(C)CCCC(C#N)(c2ccc(OC)c(OC)c2)C(C)C)cc1OC (centres unmarked) [Verapamil, reference compound]	0.36	weak by comparison with known serotonin antagonists					
CC(C)[C@@](C#N)(CCCN(C)CCc1ccccc1)c1ccccc1 [(S)-Emopamil, 2-isopropyl-5-(methyl-phenethylamino)-2-phenylvaleronitrile]	0.02		reaches the potency of known serotonin antagonists and exceeds by a multiple that of the comparison compound verapamil	18	passes the blood/brain barrier more rapidly and in considerably larger amounts than does verapamil	110	4.6
